Assay results published in patent publication US11534415B2, “Use of colchicine to inhibit tumor growth and metastases” (Murray and Poole Enterprises, LTD., priority 2018, dated 2022).

Experiments:
[1] = test system: subjects with a first episode of acute pericarditis; settings: at 18 months; aspirin alone or plus colchicine 1.0 to 2.0 mg first day then 0.5 to 1.0 mg/day for 3 months; p=0.004; cited from earlier work
[2] = test system: subjects with a first episode of recurrent pericarditis; settings: actual rates at 18 months; aspirin alone or plus colchicine 1.0-2.0 mg first day then 0.5-1.0 mg/d for 6 months; cited from earlier work
[3] = test system: co-cultures of PBMC with either HT-29 or RKO human colon cancer cells; settings: co-culture with HT-29 or RKO cells; cited from earlier work
[4] = test system: commonly used tumor cell lines with or without combination with cultivated PBMCs; assay: Example 6: anti-tumor effects of colchicine in vitro; type: cell-based; settings: incubation with colchicine and/or cultivation with pretreated PBMCs
Excerpt: A suitable in vitro model for studying the anti-tumor effects of drugs is utilized for this test. Such a test may include commonly used tumor cell lines with or without combination with cultivated PBMCs.

[5] = test system: subjects with stable coronary disease; settings: colchicine 0.5 mg/day in addition to statins and other standard secondary prevention therapies; median of 3 years; cited from earlier work
[6] = test system: subjects with cancer or in risk of cancer; assay: Example 4: randomized observer blinded end-point trial of sustained release colchicine added to standard anti-cancer therapies; settings: long-term low dose sustained release colchicine 0.5 mg/day vs standard therapy alone
Method: To assess the therapeutic effects of a sustained release formulation in subjects with or in subjects with an increased risk of cancer, a prospective randomized observer blinded end-point trial was conducted to determine whether adding 0.5 mg/day of colchicine to standard anti-cancer therapies inhibits, delays, or reduces tumor growth or metastases in a cancer subject.
A sufficient amount of subjects with cancer or in risk of cancer are randomized to long-term low dose sustained release colchicine or to standard therapy alone.

[7] = test system: commonly used tumor models; assay: Example 5: anti-tumor effects of colchicine in animals (tumor models); type: in vivo; settings: vs placebo control group
Method: A sufficient amount of specimen of a suitable animal species are included in this study utilizing commonly used tumor models. A therapeutically effective amount of colchicine is administered to the test animals. Placebo is administered to a control group. Tumor growth is induced in all animals.

[8] = test system: human lipopolysaccharide (LPS) stimulated peripheral blood mononuclear cells (PBMC); settings: colchicine added to LPS stimulated PBMC; cited from earlier work

Q: For `CC(=O)Oc1ccccc1C(=O)O` [aspirin], which recurrence rate [1] is on record?
A: 32.3%

Q: What about the recurrence rate [2] of the same molecule?
A: 50.6%

Q: Which “IL-1β production by cancer cells-stimulated PBMC” value [3] does the source give for `COc1cc2c(c(OC)c1OC)-c1ccc(OC)c(=O)cc1[C@@H](NC(C)=O)CC2` [colchicine, (−)-N-[(7S, 12aS)-1,2,3,10-tetramethoxy-9-oxo-5,6,7,9-tetrahydrobenzo[a]heptalen-7-yl]-acetamide] here?
A: promoted cancer cells-stimulated PBMC to produce IL-1β

Q: And the “release of TNF-α and IL-10” value [3]?
A: inhibit the release of tumor necrosis factor (TNF)-α and IL-10

Q: And the “growth of tumor cell lines” value [4]?
A: inhibits or reduces growth of tumor cell lines

Q: What about the “prevention of cardiovascular events” value [5] of the same molecule?
A: appeared effective for the prevention of cardiovascular events

Q: What about the recurrence rate [1] of the same molecule?
A: 10.7%

Q: What about the recurrence rate [2] of the same molecule?
A: 24.0%

Q: And the “cancer incidence and mortality” value [6]?
A: significantly lower cancer incidence and mortality

Q: And the tumor growth [7]?
A: tumor growth is prevented and/or reduced

Q: What about the IL-1β release [8] of the same molecule?
A: increased

Q: And the TNF-α release [8]?
A: decreased
